In patent US20250019387A1 (Frontier Medicines Corporation, priority 0001, published 2025):

Target: KRAS G12C and cRAF (Ras-binding domain) interaction (Homo sapiens (Human), UniProt P01116, C118S/C51S/C80L/G12C)
Assay: Inhibition of KRAS G12C and cRAF binding (AlphaScreen)
Settings: GMPPNP-loaded KRAS G12C, 19-20 hours incubation with compound; read-out: IC50 (Inhibition of KRAS G12C and cRAF Binding)
Procedure, shortened: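 IC50 values come from 4-parameter nonlinear regression of AlphaScreen signal (680 nm excitation, 570 nm emission). Compound plates sat 19-20 h at room temperature before RBD and donor/acceptor beads were added in Hepes pH 7.4 buffer with 150 mM NaCl, 5 mM MgCl2, 2% DMSO for 60-90 min; biotin-AviTag-GST replaced RBD to flag assay-technology interferers.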

Sequence of KRAS G12C and cRAF (Ras-binding domain) interaction (P01116 other isoform, or with tags, fused parts or gaps G12C/C51S/C80L/C118S): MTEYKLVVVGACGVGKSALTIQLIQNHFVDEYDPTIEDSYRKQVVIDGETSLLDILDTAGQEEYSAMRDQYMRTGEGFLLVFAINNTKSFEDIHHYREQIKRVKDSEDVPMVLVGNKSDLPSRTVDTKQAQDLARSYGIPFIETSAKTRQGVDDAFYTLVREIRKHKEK

IC50	Structure (SMILES)
0.1 to 0.5 µM	Cc1ncc(F)c(/C=C/C(=O)N2CC[C@@H](N(C)c3nc(OCC45CCCN4CCC5)nc4c(F)c(-c5cccc6ccc(F)c(Cl)c56)ncc34)C2)n1 [Example 244, (R,E)-1-(3-((7-(8-chloro-7-fluoronaphthalen-1-yl)-8-fluoro-2-((tetrahydro-1H-pyrrolizin-7a(5H)-yl)methoxy)pyrido[4,3-d]pyrimidin-4-yl)(methyl)amino)pyrrolidin-1-yl)-3-(5-fluoro-2-methylpyrimidin-4-yl)prop-2-en-1-one]
0.01 to 0.1 µM	C=CC(=O)N1CC(CN(C)c2nc(OC[C@@]34CCCN3C[C@H](F)C4)nc3c(F)c(-c4cccc5ccc(F)c(F)c45)ncc23)C1 [Example 246, 1-(3-(((7-(7,8-difluoronaphthalen-1-yl)-8-fluoro-2-(((2R,7aS)-2-fluorotetrahydro-1H-pyrrolizin-7a(5H)-yl)methoxy)pyrido[4,3-d]pyrimidin-4-yl)(methyl)amino)methyl)azetidin-1-yl)prop-2-en-1-one]
0.01 to 0.1 µM	Cc1ncc(F)c(/C=C/C(=O)N2CC[C@@H](N(C)c3nc(OCC45CCCN4CCC5)nc4c(F)c(-c5cccc6cccc(Cl)c56)ncc34)C2)n1 [Example 249, (R,E)-1-(3-((7-(8-chloronaphthalen-1-yl)-8-fluoro-2-((tetrahydro-1H-pyrrolizin-7a(5H)-yl)methoxy)pyrido[4,3-d]pyrimidin-4-yl)(methyl)amino)pyrrolidin-1-yl)-3-(5-fluoro-2-methylpyrimidin-4-yl)prop-2-en-1-one]
0.1 to 0.5 µM	C=CC(=O)N1CC[C@@H](N(CC2CC2)c2nc(OC[C@@]34CCCN3C[C@H](F)C4)nc3c(F)c(-c4cccc5cccc(Cl)c45)ncc23)C1 [Example 250, 1-((R)-3-((7-(8-chloronaphthalen-1-yl)-8-fluoro-2-(((2R,7aS)-2-fluorohexahydro-1H-pyrrolizin-7a-yl)methoxy)pyrido[4,3-d]pyrimidin-4-yl)(cyclopropylmethyl)amino)pyrrolidin-1-yl)prop-2-en-1-one]
0.1 to 0.5 µM	CN(c1nc(OC[C@@]23CCCN2C[C@H](F)C3)nc2c(F)c(-c3cccc4ccc(F)c(Cl)c34)ncc12)[C@@H]1CCN(C(=O)/C=C/C2CCCO2)C1 (stereo partly drawn) [Example 252, (E)-1-((R)-3-((7-(8-chloro-7-fluoronaphthalen-1-yl)-8-fluoro-2-(((2R,7aS)-2-fluorotetrahydro-1H-pyrrolizin-7a(5H)-yl)methoxy)pyrido[4,3-d]pyrimidin-4-yl)(methyl)amino)pyrrolidin-1-yl)-3-(tetrahydrofuran-2-yl)prop-2-en-1-one]
0.1 to 0.5 µM	C=CC(=O)N1CC[C@@H](N(C)c2nc(OCC34CCCN3CCC4)nc3c(F)c(-c4cccc5ccc(F)c(CC)c45)ncc23)C1 [Example 253, (R)-1-(3-((7-(8-ethyl-7-fluoronaphthalen-1-yl)-8-fluoro-2-((tetrahydro-1H-pyrrolizin-7a(5H)-yl)methoxy)pyrido[4,3-d]pyrimidin-4-yl)(methyl)amino)pyrrolidin-1-yl)prop-2-en-1-one]
0.01 to 0.1 µM	C=CC(=O)N1CC(CN(C)c2nc(OC[C@@]34CCCN3C[C@H](F)C4)nc3c(F)c(-c4cccc5ccc(F)c(CC)c45)ncc23)C1 [Example 254, 1-(3-(((7-(8-ethyl-7-fluoronaphthalen-1-yl)-8-fluoro-2-(((2R,7aS)-2-fluorohexahydro-1H-pyrrolizin-7a-yl)methoxy)pyrido[4,3-d]pyrimidin-4-yl)(methyl)amino)methyl)azetidin-1-yl)prop-2-en-1-one]
0.1 to 0.5 µM	Cc1nccc(/C=C/C(=O)N2CCC[C@@H](Nc3nc(OC[C@@]45CCCN4C[C@H](F)C5)nc4c(F)c(-c5cccc6cccc(Cl)c56)ncc34)C2)n1 [Example 262, (E)-1-((R)-3-((7-(8-chloronaphthalen-1-yl)-8-fluoro-2-(((2R,7aS)-2-fluorotetrahydro-1H-pyrrolizin-7a(5H)-yl)methoxy)pyrido[4,3-d]pyrimidin-4-yl)amino)piperidin-1-yl)-3-(2-methylpyrimidin-4-yl)prop-2-en-1-one]
> 0.5 µM	C=CC(=O)N1CC[C@@H](N(C)c2nc(OC[C@@]34CCCN3C[C@H](F)C4)nc3c(F)c(-c4cccc5cc(Cl)cc(Cl)c45)ncc23)C1 [Example 263, 1-((R)-3-((7-(6,8-dichloronaphthalen-1-yl)-8-fluoro-2-(((2R,7aS)-2-fluorotetrahydro-1H-pyrrolizin-7a(5H)-yl)methoxy)pyrido[4,3-d]pyrimidin-4-yl)(methyl)amino)pyrrolidin-1-yl)prop-2-en-1-one]
0.1 to 0.5 µM	C=CC(=O)N1CC[C@@H](N(CCC#N)c2nc(OC[C@@]34CCCN3C[C@H](F)C4)nc3c(F)c(-c4cccc5cccc(Cl)c45)ncc23)C1 [Example 264, 3-(((R)-1-acryloylpyrrolidin-3-yl)(7-(8-chloronaphthalen-1-yl)-8-fluoro-2-(((2R,7aS)-2-fluorohexahydro-1H-pyrrolizin-7a-yl)methoxy)pyrido[4,3-d]pyrimidin-4-yl)amino)propanenitrile]
0.01 to 0.1 µM	C=CC(=O)N1CC[C@@H](N(C)c2nc(OCC34CCCN3CCC4)nc3c(F)c(-c4cccc5ccc(F)c(F)c45)ncc23)C1 [Example 265, (R)-1-(3-((7-(7,8-difluoronaphthalen-1-yl)-8-fluoro-2-((tetrahydro-1H-pyrrolizin-7a(5H)-yl)methoxy)pyrido[4,3-d]pyrimidin-4-yl)(methyl)amino)pyrrolidin-1-yl)prop-2-en-1-one]
0.1 to 0.5 µM	C=CC(=O)N1CC[C@@H](N(C)c2nc(OC[C@@]34CCCN3C[C@H](F)C4)nc3c(F)c(-c4cccc5cc(F)c(F)cc45)ncc23)C1 [Example 266, 1-((R)-3-((7-(6,7-difluoronaphthalen-1-yl)-8-fluoro-2-(((2R,7aS)-2-fluorotetrahydro-1H-pyrrolizin-7a(5H)-yl)methoxy)pyrido[4,3-d]pyrimidin-4-yl)(methyl)amino)pyrrolidin-1-yl)prop-2-en-1-one]
0.1 to 0.5 µM	CN(c1nc(OC[C@@]23CCCN2C[C@H](F)C3)nc2c(F)c(-c3cccc4cccc(Cl)c34)ncc12)[C@@H]1CCN(C(=O)C=C2CCC2)C1 [Example 267, 1-((R)-3-((7-(8-chloronaphthalen-1-yl)-8-fluoro-2-(((2R,7aS)-2-fluorotetrahydro-1H-pyrrolizin-7a(5H)-yl)methoxy)pyrido[4,3-d]pyrimidin-4-yl)(methyl)amino)pyrrolidin-1-yl)-2-cyclobutylideneethan-1-one]

Structure (SMILES)	IC50
Cc1nccc(/C=C/C(=O)N2CCC[C@H](N(C)c3nc(OC[C@@]45CCCN4C[C@H](F)C5)nc4c(F)c(-c5cccc6cccc(Cl)c56)ncc34)C2)n1 [Example 260, (E)-1-((S)-3-((7-(8-chloronaphthalen-1-yl)-8-fluoro-2-(((2R,7aS)-2-fluorotetrahydro-1H-pyrrolizin-7a(5H)-yl)methoxy)pyrido[4,3-d]pyrimidin-4-yl)(methyl)amino)piperidin-1-yl)-3-(2-methylpyrimidin-4-yl)prop-2-en-1-one]	0.1 to 0.5 µM
Cc1nccc(/C=C/C(=O)N2CCC(Nc3nc(OC[C@@]45CCCN4C[C@H](F)C5)nc4c(F)c(-c5cccc6cccc(Cl)c56)ncc34)CC2)n1 [Example 261, (E)-1-(4-((7-(8-chloronaphthalen-1-yl)-8-fluoro-2-(((2R,7aS)-2-fluorotetrahydro-1H-pyrrolizin-7a(5H)-yl)methoxy)pyrido[4,3-d]pyrimidin-4-yl)amino)piperidin-1-yl)-3-(2-methylpyrimidin-4-yl)prop-2-en-1-one]	> 0.5 µM
